The source of these data is US20060251659A1, “Method for screening molecules that restore NOD1 activity in cells containing an NOD2 mutation that reduces or eliminates NOD1 activity” (priority 2005, published 2006).

Assay [1] has as its system PBMCs from healthy donors. The experiment in a line: Cytokine response of PBMCs from healthy donors (CTR). The assay is classed as cell-based, human. The conditions noted are these: 50 nM, overnight (18 hours). On the procedure:
(§1) FIG. 2. Response to muramyl peptides of PBMCs from healthy donors (CTR), Crohn's disease patients without defects in Nod2 (Crohn's) or Crohn's disease patients homozygous for the frameshift mutation (Nod2 fs). IL-1β, TNF and IL-10 were measured from the cell culture medium. Intracellular IL-1α was measured from cell lysates. All muramyl peptides (all 50 nM) were added directly to the cell culture medium for 18 hours.
(§2) FIG. 3. Response to peptidoglycans of PBMCs from healthy donors (CTR), Crohn's disease patients without defects in Nod2 (Crohn's) or Crohn's disease patients homozygous for the frameshift mutation (Nod2fs). IL-1β, TNF and IL-10 were measured from the cell culture medium. Intracellular IL-1α was measured from cell lysates. All peptidoglycans (all at 1 μg/ml) and LPS (100 ng/ml) were added directly to the cell culture medium for 18 hours.
(§3) FIG. 5. Analysis of the synergistic activation of PBMCs by M-TriDAP plus either LPS or LTA. PBMCs from healthy donors (CTR), Crohn's disease patients without defects in Nod2 (Crohn's) or Crohn's disease patients homozygous for the frameshift mutation (Nod2 fs) were analyzed. Cells were stimulated either with M-TriDAP (MTP(DAP) on the figure), LPS or LTA alone or in combination; LPS+M-TriDAP or LTA+M-TriDAP with the agonists added simultaneously, IL-1β, TNF and IL-10 were measured from the cell culture medium. Intracellular IL-1α was measured from cell lysates, LPS (40 pg/ml), LTA (5 μg/ml) and M-TriDAP (50 nM) were added directly to the cell culture medium for 18 hours.
(§4) The six muramyl peptides characterized above (MDP, M-TriLys, M-TetraLys, anhydro-M-TriLys, anhydro-M-TetraLys and M-TriDAP) were used to stimulate PBMCs obtained from human blood. PBMCs from three groups of individuals were collected: healthy donors (CTR), Crohn's disease patients without Nod2 mutations (Crohn) and Crohn's disease patients carrying homozygous Nod2fs frameshift mutation (Nod2fs). […] IL-1β, IL-10 and TNFα were measured in the supernatant, while intracellular IL-1α was measured from cell lysates (FIG. 2). […]

Assay [2] has as its system PBMCs from Nod2fs patients. The experiment in a line: Cytokine response of PBMCs from Crohn's disease patients homozygous for the Nod2fs frameshift mutation. Format: cell-based, human. The conditions noted are these: 50 nM, overnight (18 hours). On the procedure:
as §1, §2, §3, §4

For a further assay, the target named is T1, Nod2 (Homo sapiens, UniProt Q9HC29).
T1 construct: expressed in transfected cells; host or cells: HEK293T
Put plainly: Nod2-dependent NF-κB luciferase reporter activation in transfected HEK293T cells. The assay is classed as cell-based. The conditions noted are these: for activation of Nod2 (NF-κB-driven luciferase reporter): muramyl peptides 10 nM up to 250 nM, HEK293T cells expressing Nod2, 24 h. The procedure: FIG. 1. Detection of MDP-derived muramyl peptides by Nod2. A, schematic representation of the muramyl peptides used in this study. B, Human HEK293 epithelial cells were transfected with several muramyl peptides (MDP, M-TriLys, Anh-M-TriLys, M-TetraLYS and Anh-M-TetraLYS) at the following concentrations: 10 nM (white bars), 50 nM (grey bars) or 250 nM (black bars) in the presence of an expression vector for Nod2 . The activity of a NF-κB-driven luciferase reporter gene was measured, and Nod2-dependent activation of the reporter gene in the presence of muramyl peptides was reported to the one obtained without stimulation with muramyl peptides. […] Experiments were performed three times with similar results.
In search for MDP-derived muramyl peptides that could stimulate the Nod2 signaling pathway, the inventors generated several molecules differing in the length of their peptidic moiety, including M-TriLys and M-TetraLys (FIG. 1A). These molecules were then tested for their ability to activate Nod2 using co-transfection assays in HEK293T epithelial cells and measuring NF-κB activity as a read-out (FIG. 1B). […] Here, a larger range of muramyl peptide concentration was used (10 nM up to 250 nM) to allow for the identification of even weak inducers of the Nod2 pathway.
HEK293T cells were cultured in DMEM containing 10% fetal calf serum. Prior to transfection, HEK293T cells were seeded into 24 well plates at a density of 1×10^5 cells/ml as described previously (26), MDP LD was from Calbiochem and reported to be 98% pure by TLC.
The expression plasmid for Nod2 has been previously described (27). The NF-κB luciferase reporter plasmid was from Stratagene. Transfections were carried out in […] cells as previously described (26).
Studies examining the synergistic activation of NF-κB by muramyl peptides in cells over expressing Nod2 were carried out as originally described by Inohara et al. (28). Briefly, HEK293T cells were transfected overnight with 10 ng of Nod2 plus 75 ng of NF-κB luciferase reporter plasmid. At the same time, muramyl peptides were added to cell culture medium and the synergistic NF-κB-dependent luciferase activation was then measured following 24 h of co-incubation. NF-κB-dependent luciferase assays were performed in duplicate and data represent at least 3 independent experiments.
(Reporter assays use an easily measured gene product as a stand-in for the process of interest.)

For assay [3], the system named is PBMCs from Crohn's disease patients without Nod2 mutations. Put plainly: Cytokine response of PBMCs from Crohn's disease patients without Nod2 mutations. The assay is classed as cell-based, human. The conditions noted are these: PBMCs from non-Nod2 Crohn's disease patients; 50 nM; overnight (18 hours). The procedure: as §1, §2, §3, §4

Entries after “also recorded” stand apart in the source; their conditions may differ.

T1 sequence (Q9HC29 whole entry): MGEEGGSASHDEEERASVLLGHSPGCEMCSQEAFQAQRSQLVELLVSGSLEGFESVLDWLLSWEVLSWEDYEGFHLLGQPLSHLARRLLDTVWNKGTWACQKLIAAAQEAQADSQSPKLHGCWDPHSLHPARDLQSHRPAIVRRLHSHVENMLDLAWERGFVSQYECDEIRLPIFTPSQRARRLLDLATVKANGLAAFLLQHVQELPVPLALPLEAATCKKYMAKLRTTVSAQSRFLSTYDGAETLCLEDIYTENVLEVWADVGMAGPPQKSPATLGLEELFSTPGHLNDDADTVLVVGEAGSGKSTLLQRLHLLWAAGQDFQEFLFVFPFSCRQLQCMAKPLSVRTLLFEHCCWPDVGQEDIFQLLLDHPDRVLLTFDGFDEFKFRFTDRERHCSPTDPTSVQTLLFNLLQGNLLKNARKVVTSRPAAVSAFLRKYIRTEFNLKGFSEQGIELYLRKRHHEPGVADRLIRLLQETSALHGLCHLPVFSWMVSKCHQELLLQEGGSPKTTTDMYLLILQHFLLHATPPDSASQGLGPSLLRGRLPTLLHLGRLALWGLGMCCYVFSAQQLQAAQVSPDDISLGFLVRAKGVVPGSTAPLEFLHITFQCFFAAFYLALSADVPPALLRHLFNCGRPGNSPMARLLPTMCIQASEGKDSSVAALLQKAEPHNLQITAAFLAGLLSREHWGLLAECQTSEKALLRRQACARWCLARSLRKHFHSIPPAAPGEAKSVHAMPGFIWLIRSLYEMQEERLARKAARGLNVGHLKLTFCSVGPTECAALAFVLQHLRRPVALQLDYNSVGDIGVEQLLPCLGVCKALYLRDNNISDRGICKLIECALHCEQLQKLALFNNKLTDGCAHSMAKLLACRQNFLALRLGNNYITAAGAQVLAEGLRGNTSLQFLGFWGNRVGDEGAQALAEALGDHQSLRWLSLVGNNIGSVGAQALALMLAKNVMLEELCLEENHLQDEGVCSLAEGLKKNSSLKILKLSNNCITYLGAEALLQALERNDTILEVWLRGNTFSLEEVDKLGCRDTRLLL

Turning to M-TriLys, the results for the “cytokine response (IL-1β, IL-10, TNFα, intracellular IL-1α) to muramyl peptides” value (“cytokine response” for short) in assay [1], in assay [2] and in assay [3] were “potent activators”, “not stimulated” and “still reacted”, respectively. In addition, the “activation of Nod2 (NF-κB-driven luciferase reporter)” value on Nod2 was “activated Nod2 with similar efficiency”.
Take “diaminopimelic acid (DAP)-containing muramyl tripeptide [M-TriDAP]”: the “cytokine response” value in assay [1] is “efficiently stimulated; also recorded: globally as potent as MDP”; in assay [2] it was “failed to induce cytokine response; also recorded: unable to stimulate”; in assay [3] it was “efficiently stimulated; also recorded: globally as potent as MDP”. The “activation of Nod2 (NF-κB-driven luciferase reporter)” value on Nod2 was “failed to activate Nod2”.
Regarding `CC(=O)N[C@H]1C(O)O[C@H](CO)[C@@H](O)[C@@H]1O[C@H](C)C(=O)N[C@@H](C)C(=O)N[C@H](CCC(=O)O)C(N)=O` (mixture of isomers) [MDP, muramyl dipeptide], the “cytokine response” value in assay [1] is “potent activators”; in assay [2], “not stimulated”; in assay [3], “still reacted”. Moreover, the “concentration at which activation of Nod2 was maximal” value on Nod2 (HEK293T co-transfection, NF-κB read-out, 10 pmoles per milliliter of culture medium) is 10 nM. Moreover, at Nod2, the “activation of Nod2 (NF-κB-driven luciferase reporter)” value is “activated Nod2 with similar efficiency”.
